Test results reported in US10882826B2, “Quinolinone or quinazolinone comprising antibiofilm compositions, compounds and methods and uses relating thereto” (University College Cork—National University of Ireland, priority 2015, dated 2021).

Experiments:
[1] = test system: P. aeruginosa PAO1 pqsA-pqsA-lacZ strain; experiment: Phenazine extraction (phenazine production); format: cell-based; conditions: PAO1 pqsA-pqsA-lacZ strain, test compounds 10 μM, 24 hr; methanol control 0.080
Description: (§1) P. aeruginosa strains, PAO1 and pqsA mutant, containing the chromosomally inserted pqsA-lacZ promoter fusion on plasmid pUC18-mini-Tn7, were sub-cultured from glycerol stocks onto LB agar plates, supplemented with Carbenicillin (200 μg/ml) and X-gal (40 μg/ml), and incubated at 37° C. overnight. Single colonies were inoculated into LB broth (20 ml), supplemented with Carbenicillin (200 μg/ml), and incubated at 37° C., shaking at 180 rpm overnight. For subsequent experiments, the OD600 nm was recorded and a starting OD600 nm of 0.02 was inoculated into fresh LB broth, supplemented with Carbenicillin (200 μg/ml) and incubated at 37° C., shaking at 180 rpm.
(§2) P. aeruginosa strains were cultured as described above for 24 hr, with the addition of test compounds (10 μM). Cultures were centrifuged at 4000 rpm for 10 minutes and the cell free supernatant (5 ml) removed. Chloroform (3 ml) was added, and mixed by vortex. After centrifugation at 4000 rpm for 5 mins, the lower aqueous phase was transferred to 0.2 M HCl (2 ml). Samples were mixed by vortex and centrifuged at 4000 rpm for 5 mins to separate the phases. An aliquot of the top phase (1 ml) was removed and spectrophotmetrically analysed at OD570 nm. Phenazine production was calculated using the following formula: OD570 nm×2×17.072 and the units expressed in μg/ml.
(§3) The phenazine production levels and Miller units in the PAO1 pqsA-pqsA-lacZ strain are detailed in table 5.
(§4) The virulence of compounds B2, C13 and C15 towards P. aeruginosa was assessed using an analogous method.

[2] = test system: IB3 lung epithelial cells; experiment: LDH release cytotoxicity, IB3-1 cells; format: cell-based; conditions: 100 μM, 16 hr, percentage of 0.1% Triton (100% cytotoxicity), MeOH 3.844
Description: (§5) Lactate dehydrogenase (LDH) release from IB3 lung epithelial cells was assayed as a measure of cytotoxicity using an LDH colorimetric kit (Roche) according to manufacturers' instructions. Briefly, IB3-1 cells were seeded onto 96 well plates and treated with methanol (control) and test compounds (100 μM). Following 16 hr incubation at 37° C. and 5% CO2, supernatants were removed and added to catalyst reaction mixture in a fresh plate and further incubated at 37° C. and 5% CO2 for 30 mins to allow for colour development. After this period, the plate was analysed on an ELISA plate reader at OD490 nm. Cytotoxicity was expressed as a percentage of cells treated with 0.1% (v/v) Triton (100% cytotoxicity).

[3] = test system: C. albicans strain SC5314 biofilm; experiment: XTT metabolic assay of C. albicans biofilm; format: cell-based, Candida albicans; conditions: for XTT result, Mean (MeOH control = 1) / Absorbance at 492 nm, Mean (XTT): C. albicans biofilm; for Absorbance at 492 nm, Mean (XTT): test compound 100 μM, 24 hr, MeOH control 0.647, untreated 0.851
Description: C. albicans strain SC5314 was sub-cultured from 15% (v/v) glycerol stocks at −80° C. onto Yeast Peptone Dextrose (YPD) medium [1% (w/v) yeast extract, 2% (w/v) peptone and 2% (w/v) dextrose] and incubated at 30° C. overnight.
The test compounds in desiccated form were re-suspended in Methanol to create a 10 mM stock. […]
The ability of some of the compounds detailed in example 1 to disrupt Candida albicans was tested using Confocal Scanning Laser Microscopy and an XTT Metabolic Assay. The XTT assay is a commonly used quantitative method assessing Candida biofilm mass and growth often in response to novel drug therapies.
C. albicans biofilm formation was carried out in 96 well plates by a method of the prior art. Briefly, C. albicans was inoculated into Yeast Nitrogen Base [10% (w/v)] and glucose/maltose [10% (w/v)] and incubated overnight at 30° C. Seeding densities for all subsequent experiments (N=3) were OD600=0.05. Cells were grown in Yeast Nitrogen Base supplemented with 1 M Phosphate buffer and acetyl-D-glucosamine (YNB-NP) along with appropriate volumes of test compound to provide the desired concentration. Cells were cultured in 96 well plates for 1 hr at 37° C. to facilitate yeast attachment. After this incubation, the supernatants were aspirated, the wells washed twice with YNB-NP media, and fresh media with the same concentration of test compound added to the appropriate wells. The plate was incubated for 24 hr at 37° C. The next day, the cultures were aspirated and the wells washed once with YNB-NP media.
C. albicans biofilm quantification was carried out in 96 well plates using a semi-quantitative Tetrazolium salt, 2,3-bis-(2-methoxy-4-nitro-5-sulfophenyl)-2H tetrazolium-5-carboxanilide inner salt (XTT) reduction assay (Hawser, Tunney et al, Antimicrob Agents Chemother. 2004 May; 48(5):1879-81). XTT (0.01 g) was dissolved in sterile water (20 ml) and filter sterilized. 10 μl of Menadione dissolved in Acetone was added to the XTT solution, just before use. The XTT-Menadione Solution (100 μl) was added to each well. The plate was incubated in the dark at 37° C. for up to 2 hr to allow for colour development. The OD492 nm was recorded for each well. Experiments were repeated at least three times, with at least eight technical replicates.
Experiments were first carried out using the test compound at concentration of 100 μM.

[4] = test system: pqsA-lacZ promoter fusion; experiment: Promoter fusion based expression analysis (pqsA-lacZ, Miller units); format: cell-based, P. aeruginosa; conditions: PAO1 pqsA-pqsA-lacZ strain, 100 μM, overnight; methanol control 12287
Description: as §1
Promoter fusion analyses were performed in a 96-well format. Briefly, overnight cultures of wild-type PAO1 pqsA-lacZ (pLP0996) and mutant strain PAO1 pqsA^− pqsA-LacZ were diluted to OD600 nm=0.02 in LB. Test compounds at 100 μM final concentration were added, mixed, aliquoted into 96 well plates and incubated overnight at 37° C. with shaking. The next day, OD600 nm values were recorded in a plate reader. Aliquots of cells (0.02 ml) were permeabilised [100 mM dibasic sodium phosphate (Na2HPO4), 20 mM KCl, 2 mM MgSO4, 0.8 mg/mL CTAB (hexadecyltrimethylammonium bromide), 0.4 mg/mL sodium deoxycholate, 5.4 μL/mL beta-mercaptoethanol] and added to substrate solution [60 mM Na2HPO4, 40 mM NaH2PO4, 1 mg/mL o-nitrophenyl-β-D-Galactoside (ONPG), 2.7 μL/mL β-mercaptoethanol]. The kinetics of colour development was monitored and the reactions were stopped using 1M NaCO3. OD420 nm were recorded as above. Miller units were calculated using the following equation; 1000×[OD420 nm/(OD600 nm)×0.02 ml×reaction time (mins)].
as §3, §4

DU145 = experiment: LDH release cytotoxicity, DU145; format: cell-based; conditions: DU145 cell line; percentage of 0.1% Triton
Description: as §5, with “cytotoxicity). The results are detailed in table 3:” for “cytotoxicity).”
(§6) The above experiments were repeated, testing some compounds against further cell lines (A549, DU145 and HeLa).

Pseudomonus aeruginosa = experiment: Virulence of Pseudomonas aeruginosa (summary statement); format: cell-based; conditions: unlike HHQ and PQS
Description: The virulence of compounds B1, B2, C2, C3, C4, C5, C6, C8 and C11 towards P. aeruginosa was assessed using the following method:
as §2, with “μg/ml. […]” for “μg/ml.”

[5] = test system: A. fumigatus CFBRC1 biofilm; experiment: A. fumigatus biofilm assay, clinical source CFBRC1; format: cell-based, Aspergillus fumigatus; conditions: biofilm from clinical source CFBRC1
Description: (§7) A. fumigatus Af293 was grown on SDA in 100 ml cell culture flasks at 37° C. for 3-4 days. Conidia were harvested by flooding the surface of the agar plates with 5 ml PBS (Oxoid) containing 0.025% (v/v) Tween 20 and gently moving the liquid over the surface of the fungal lawn. The conidial suspension was transferred into a 25 ml sterile container and conidia were counted using a Neubauer haemocytometer and light microscope. Conidia were adjusted to the required concentration in RPMI 1640 (Sigma) buffered to pH 7.0 with 0.165 M MOPS immediately prior to biofilm formation analysis.
(§8) To assess biofilm formation, counted A. fumigatus spores (1×10^5) in MOPS buffered RPMI 1640 were inoculated into 24- and 96-well plates and grown overnight in the presence of 100 μM HHQ, PQS and the test compounds. After 24 hrs, the media was removed and the biofilm washed twice with distilled water after which 0.1% crystal violet (CV) was added to each well and allowed to stand for 1 hr at room temperature. The crystal violet was removed and all wells washed in a water bath by inversion. Ethanol was added to each well to solubilise biofilms after which samples were read on a spectrophotometer at Abs595 nm.
(§9) The above experiments were carried out using biofilms grown from laboratory sources of A. fumigatus. The experiments were repeated to test some compounds against biofilms grown from three different clinical sources of A. fumigatus (CFBRC1, CFBRC2 and CFBRC3. The results are shown in table 8: […]

[6] = test system: A. fumigatus Af293 biofilm; experiment: A. fumigatus biofilm assay (crystal violet); format: cell-based, Aspergillus fumigatus
Description: A. fumigatus Af293 was routinely grown on Sabouraud dextrose agar (SDA) in 100 ml cell culture flasks at 37° C. for 3-4 days until a lawn of fungal growth was observed.
as §7, §8

[7] = test system: A. fumigatus CFBRC2 biofilm; experiment: A. fumigatus biofilm assay, clinical source CFBRC2; format: cell-based, Aspergillus fumigatus; conditions: biofilm from clinical source CFBRC2
Description: as §7, §8, §9

[8] = test system: A. fumigatus CFBRC3 biofilm; experiment: A. fumigatus biofilm assay, clinical source CFBRC3; format: cell-based, Aspergillus fumigatus; conditions: biofilm from clinical source CFBRC3
Description: as §7, §8, §9

mammalian cells = experiment: Cytotoxicity towards mammalian cells (summary statement); format: cell-based
Description: as §5, with “cytotoxicity). The results are detailed in table 3:” for “cytotoxicity).”
as §6

Row | SMILES | Phenazine, Mean [1] [µg/mL] | % Cytotoxicity, Mean (LDH release) [2] [%] | XTT result, Mean (MeOH control = 1) ([3]; 10 μM) | XTT result, Mean (MeOH control = 1) ([3]; 50 μM) | XTT result, Mean (MeOH control = 1) ([3]; 100 μM) | Absorbance at 492 nm, Mean (XTT) [3] | effectiveness against fungal biofilms formed by Candida albicans (in words) ([3]; summary statement) | Miller Units, Mean [4] [Miller Units] | Cytotoxicity, Mean (LDH release) (DU145) [%] | effect on virulence of Pseudomonus aeruginosa (in words) (Pseudomonus aeruginosa) | Relative absorbance compared to MeOH (=1), Mean [5] | Relative absorbance at 595 nm compared to methanol control, Mean ([6]; A. fumigatus Af293 biofilm, 100 μM, 24 hrs, crystal violet) | effectiveness against fungal biofilms formed by Aspergillus fumigatus (in words) ([6]; summary statement) | Relative absorbance compared to MeOH (=1), Mean [7] | Relative absorbance compared to MeOH (=1), Mean [8] | cytotoxicity towards mammalian cells (in words) (mammalian cells)
1 | CCCCCCCc1cc(=O)c2cc(C)ccc2[nH]1 [Compound C3] | 0.774 | 23.77 | 0.71 | 0.57 | 0.51 | 0.307 | effective | 18350 | 32.42 | do not increase the virulence | – | – | – | – | – | –
2 | CCCCCCCCCc1cc(=O)c2ccccc2[nH]1 [Compound C10] | – | – | 0.58 | 0.50 | 0.53 | 0.419 | – | – | 31.7 | do not increase the virulence | 0.772 | 0.24 | effective | 0.567 | 0.670 | reduced cytotoxicity
